According to patent publication US11236052B2, “Aminobenzimidazole derivatives, treatments, and methods of inhibiting histone deacetylase” (TRANSLATIONAL DRUG DEVELOPMENT, LLC, priority 2017, dated 2022):

How the values were obtained:
[1] = Permeability (PAMPA); assay type: in vitro ADME; details: read-out: Permeabiltiy (PAMPA)
[2] = system: H929; assay: CellTiter-Glo cell viability assay, H929; assay type: cell-based; details: Myeloma; for IC50: Homo sapiens, NCI-H929, H929, 72 hours
Description: (§1) Cell Viability Assay—Cell viability was measured by the CellTiter-Glo® cell viability assay Promega (Madison, Wis.). The CellTiter-Glo® Luminescent Cell Viability Assay is a homogeneous method to determine the number of viable cells in culture based on quantitation of the ATP present, which signals the presence of metabolically active cells. Following treatment, CellTiter-Glo® is added to treatment wells and incubated at 37° C. luminescence values were measured at using a Molecular Devices Spectramax microplate reader.
(§2) Single Agent Studies—Cells were grown to 70% confluency, trypsinized, counted, and seeded in 96 well flat-bottom plates at a final concentration of 2.5×10^3-5×10^3 cells/well (Day 0). Cells were allowed to incubate in growth media for 24 hours. Treatment with the test agents began on Day 1 and continued for 72 hours. At the 72-hour time point, treatment-containing media was removed. Viable cell numbers are quantified by the CellTiter-Glo® cell viability assay as described above. Experiments were run with triplicate concentrations to determine growth inhibitory activity. Results from these studies were used to calculate an IC50 value (concentration of drug that inhibits cell growth by 50 percent of control) for each compound.
(§3) Data Collection—For single agent and combination studies, data from each experiment was collected and expressed as % Cell Growth using the following calculation: % Cell Growth=(ftest/fvehicle)×100
(§4) Where ftest is the luminescence of the tested sample, and fvehicle is the luminescence of the vehicle in which the drug is dissolved. Dose response graphs and IC50 values were generated using Prism 6 software (GraphPad).

[3] = biological target: HDAC6 (Homo sapiens (Human), UniProt Q9UBN7); assay: In vitro HDAC enzyme inhibition, mobility shift; assay type: biochemical; details: purified enzyme
Chain of HDAC6 (Q9UBN7 whole entry): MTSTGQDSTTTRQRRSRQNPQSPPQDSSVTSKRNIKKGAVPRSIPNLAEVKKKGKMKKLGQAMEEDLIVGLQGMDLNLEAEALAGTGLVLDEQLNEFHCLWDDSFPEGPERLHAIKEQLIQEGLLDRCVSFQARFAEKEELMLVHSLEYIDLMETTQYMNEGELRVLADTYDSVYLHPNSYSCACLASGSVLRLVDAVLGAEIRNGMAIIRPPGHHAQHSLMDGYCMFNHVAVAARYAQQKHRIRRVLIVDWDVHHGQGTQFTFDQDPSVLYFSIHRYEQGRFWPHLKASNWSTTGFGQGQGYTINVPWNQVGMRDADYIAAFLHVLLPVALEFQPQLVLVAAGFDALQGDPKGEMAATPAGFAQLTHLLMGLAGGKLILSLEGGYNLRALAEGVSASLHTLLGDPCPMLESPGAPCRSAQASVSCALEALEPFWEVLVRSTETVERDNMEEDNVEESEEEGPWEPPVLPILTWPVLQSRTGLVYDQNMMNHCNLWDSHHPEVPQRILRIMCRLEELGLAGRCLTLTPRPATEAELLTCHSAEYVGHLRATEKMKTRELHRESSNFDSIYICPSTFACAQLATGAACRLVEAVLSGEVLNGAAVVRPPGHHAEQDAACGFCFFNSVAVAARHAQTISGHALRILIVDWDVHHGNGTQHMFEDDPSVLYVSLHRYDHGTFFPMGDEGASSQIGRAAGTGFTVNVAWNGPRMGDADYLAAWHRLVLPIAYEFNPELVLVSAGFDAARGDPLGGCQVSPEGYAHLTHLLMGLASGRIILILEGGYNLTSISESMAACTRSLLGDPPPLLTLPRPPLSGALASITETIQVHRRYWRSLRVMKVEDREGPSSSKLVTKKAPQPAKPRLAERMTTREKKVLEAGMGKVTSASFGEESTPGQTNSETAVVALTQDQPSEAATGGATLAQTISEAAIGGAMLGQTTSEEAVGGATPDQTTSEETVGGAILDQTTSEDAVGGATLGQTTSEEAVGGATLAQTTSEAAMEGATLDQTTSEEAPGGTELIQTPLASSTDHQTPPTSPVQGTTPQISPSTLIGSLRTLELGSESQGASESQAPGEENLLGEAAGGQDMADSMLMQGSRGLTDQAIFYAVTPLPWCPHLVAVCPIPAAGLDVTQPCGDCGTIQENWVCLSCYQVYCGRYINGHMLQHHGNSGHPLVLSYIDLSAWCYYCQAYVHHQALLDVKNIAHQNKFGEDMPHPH
Description: (§5) Purified histone deacetylase enzymes 1, 3, 6, 10 were incubated with fluorescently labeled substrate and test compounds in a standardized reaction mixture in 384 well plates. Upon termination of the reaction, samples were introduced onto microfluidic chips. Samples migrate through channels in the chips and product and substrate are separated based on the difference in their charge and mass (electrophoretic mobility shift). Enzyme activity is measured by direct comparison of the fluorescence in the product and substrate peaks and the results presented in Table 4.

[4] = biological target: HDAC1 (Homo sapiens (Human), UniProt Q13547); assay: In vitro HDAC enzyme inhibition, mobility shift; assay type: biochemical; details: purified enzyme
Chain of HDAC1 (Q13547 whole entry): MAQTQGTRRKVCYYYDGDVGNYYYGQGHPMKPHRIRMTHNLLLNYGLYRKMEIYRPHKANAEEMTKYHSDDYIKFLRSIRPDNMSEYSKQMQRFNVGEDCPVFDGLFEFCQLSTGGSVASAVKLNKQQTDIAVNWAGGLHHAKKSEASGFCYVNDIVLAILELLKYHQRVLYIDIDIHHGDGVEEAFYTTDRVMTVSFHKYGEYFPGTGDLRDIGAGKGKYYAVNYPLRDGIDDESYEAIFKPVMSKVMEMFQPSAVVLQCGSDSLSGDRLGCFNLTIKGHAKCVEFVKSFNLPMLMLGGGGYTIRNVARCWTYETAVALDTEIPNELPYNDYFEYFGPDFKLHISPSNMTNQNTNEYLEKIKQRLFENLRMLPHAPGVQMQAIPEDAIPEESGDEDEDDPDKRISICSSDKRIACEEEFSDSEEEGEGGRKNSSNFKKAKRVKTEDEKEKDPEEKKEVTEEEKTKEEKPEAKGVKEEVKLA
Description: as §5

[5] = biological target: HDAC10 (Homo sapiens (Human), UniProt Q969S8); assay: In vitro HDAC enzyme inhibition, mobility shift; assay type: biochemical; details: purified enzyme
Chain of HDAC10 (Q969S8 whole entry): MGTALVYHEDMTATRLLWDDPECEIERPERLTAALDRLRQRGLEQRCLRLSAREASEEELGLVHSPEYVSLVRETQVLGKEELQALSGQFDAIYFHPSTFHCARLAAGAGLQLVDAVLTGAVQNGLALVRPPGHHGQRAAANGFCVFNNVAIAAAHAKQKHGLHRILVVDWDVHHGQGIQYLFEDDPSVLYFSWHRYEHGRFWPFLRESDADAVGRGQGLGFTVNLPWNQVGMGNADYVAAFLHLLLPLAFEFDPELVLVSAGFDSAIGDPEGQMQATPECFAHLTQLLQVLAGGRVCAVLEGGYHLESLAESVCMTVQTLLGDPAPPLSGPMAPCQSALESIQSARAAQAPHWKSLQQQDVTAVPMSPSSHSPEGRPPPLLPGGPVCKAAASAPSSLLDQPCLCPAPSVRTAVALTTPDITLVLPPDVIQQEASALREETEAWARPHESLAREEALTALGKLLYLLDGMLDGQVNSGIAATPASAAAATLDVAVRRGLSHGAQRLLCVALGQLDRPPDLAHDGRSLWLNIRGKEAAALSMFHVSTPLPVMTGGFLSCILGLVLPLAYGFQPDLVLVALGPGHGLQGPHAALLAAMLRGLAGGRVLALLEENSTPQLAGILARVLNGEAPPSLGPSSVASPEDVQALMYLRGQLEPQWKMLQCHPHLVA
Description: as §5

[6] = biological target: HDAC3 (Homo sapiens (Human), UniProt O15379); assay: In vitro HDAC enzyme inhibition, mobility shift; assay type: biochemical; details: purified enzyme
Chain of HDAC3 (O15379 whole entry): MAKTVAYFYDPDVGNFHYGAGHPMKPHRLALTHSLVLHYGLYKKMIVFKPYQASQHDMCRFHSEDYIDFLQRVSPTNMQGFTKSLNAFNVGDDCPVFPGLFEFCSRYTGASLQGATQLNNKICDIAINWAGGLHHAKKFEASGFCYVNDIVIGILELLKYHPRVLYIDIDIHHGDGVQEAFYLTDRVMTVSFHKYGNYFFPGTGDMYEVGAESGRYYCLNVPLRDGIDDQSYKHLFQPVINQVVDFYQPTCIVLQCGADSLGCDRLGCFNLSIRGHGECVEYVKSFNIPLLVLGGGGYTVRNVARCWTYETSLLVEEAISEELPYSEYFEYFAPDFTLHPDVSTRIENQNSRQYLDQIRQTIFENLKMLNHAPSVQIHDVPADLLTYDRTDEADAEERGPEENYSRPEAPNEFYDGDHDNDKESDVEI
Chain of HDAC3 (Q9Y618 395-489 partner): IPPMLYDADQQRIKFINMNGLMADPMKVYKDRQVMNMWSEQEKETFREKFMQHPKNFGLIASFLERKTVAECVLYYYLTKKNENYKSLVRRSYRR
Description: as §5

[7] = system: JEKO; assay: CellTiter-Glo cell viability assay, JEKO; assay type: cell-based; details: Lymphoma; for IC50: 72 hours
Description: as §1, §2, §3, §4

[8] = system: A2780; assay: CellTiter-Glo cell viability assay, A2780; assay type: cell-based; details: Ovarian; for IC50: Homo sapiens, A2780, 72 hours
Description: as §1, §2, §3, §4

[9] = system: A549; assay: CellTiter-Glo cell viability assay, A549; assay type: cell-based; details: NSCLC; for IC50: Homo sapiens, A549, 72 hours
Description: as §1, §2, §3, §4

[10] = system: Ishikawa; assay: CellTiter-Glo cell viability assay, Ishikawa; assay type: cell-based; details: Uterine; for IC50: Homo sapiens, 72 hours
Description: as §1, §2, §3, §4

[11] = system: RS4-11; assay: CellTiter-Glo cell viability assay, RS4-11; assay type: cell-based; details: ALL; for IC50: Homo sapiens, RS4-11, 72 hours
Description: as §1, §2, §3, §4

[12] = system: GIST48; assay: CellTiter-Glo cell viability assay, GIST48; assay type: cell-based; details: GIST; for IC50: Homo sapiens, GIST48, 72 hours
Description: as §1, §2, §3, §4

[13] = system: U251; assay: CellTiter-Glo cell viability assay, U251; assay type: cell-based; details: GBM; for IC50: Homo sapiens, U-251, U251, 72 hours
Description: as §1, §2, §3, §4

[14] = system: K562; assay: CellTiter-Glo cell viability assay, K562; assay type: cell-based; details: CML; for IC50: Homo sapiens, K562, 72 hours
Description: as §1, §2, §3, §4

[15] = system: SNG-M; assay: CellTiter-Glo cell viability assay, SNG-M; assay type: cell-based; details: Uterine; for IC50: 72 hours
Description: as §1, §2, §3, §4

[16] = system: Raji; assay: CellTiter-Glo cell viability assay, Raji; assay type: cell-based; details: Lymphoma; for IC50: Homo sapiens, 72 hours
Description: as §1, §2, §3, §4

[17] = % PPB, rat; assay type: in vitro ADME; details: plasma; rat (r)
[18] = system: MFE280; assay: CellTiter-Glo cell viability assay, MFE280; assay type: cell-based; details: Uterine; for IC50: Homo sapiens, MFE-280, MFE280, 72 hours
Description: as §1, §2, §3, §4

[19] = system: GIST882; assay: CellTiter-Glo cell viability assay, GIST882; assay type: cell-based; details: GIST; for IC50: Homo sapiens, GIST882, 72 hours
Description: as §1, §2, §3, §4

[20] = system: SUDHL-10; assay: CellTiter-Glo cell viability assay, SUDHL-10; assay type: cell-based; details: Lymphoma; for IC50: Homo sapiens, SU-DHL10, SUDHL-10, 72 hours
Description: as §1, §2, §3, §4

[21] = system: MM1.S human myeloma cells; assay: Human MM1.S xenograft model, combination screening with pomalidomide/dexamethasone; assay type: in vivo, mice; details: 100 mg/kg daily for 19 days oral plus pomalidomide 10 mg/kg / dexamethasone 0.3 mg/kg; compared to ID #2 or ID #3 combinations
Description: Group 3 (G3) was treated with Compound ID #1 at 100 mg/kg daily for 19 days. Group 4 (G4) was treated with Compound ID #2 at 100 mg/kg daily for 19 days. Group 5 (G5) was treated with Compound ID #3 at 100 mg/kg daily for 19 days. […] Vehicle and Compound ID #1, Compound ID #2 and Compound ID #3 were administered orally via oral gavage. Body weights and tumor measurements were collected twice weekly.

[22] = system: MM1.S human myeloma cells; assay: Human MM1.S xenograft model, single agent screening; assay type: in vivo, mice; details: 100 mg/kg daily for 19 days, oral gavage; compared to Compound ID #2 or Compound ID #3
Description: In vivo efficacy studies of Compound ID #1, Compound ID #2, and Compound ID #3 were tested in human MM1.S xenograft model as shown in FIG. 1. […] Group 2 (G2) was treated with Compound ID #1 at 100 mg/kg daily for 19 days. Group 3 (G3) was treated with Compound ID #2 at 100 mg/kg daily for 19 days. Group 4 (G4) was treated with Compound ID #3 at 100 mg/kg daily for 19 days. Vehicle and Compound ID #1, Compound ID #2 and Compound ID #3 were administered orally via oral gavage. Body weights and tumor measurements were collected twice weekly.

O=C(NO)c1ccc(Nc2nc3ccccc3n2C2CCCCCC2)cc1 [ID #3, 4-((1-cycloheptyl-1H-benzo[d]imidazol-2-yl)amino)-N-hydroxybenzamide]
Papp [1]: 2.2 ×10⁻⁶ cm/s
IC50 [2]: 1.38 µM
IC50 [3]: 0.0145 µM
IC50 [4]: 0.445 µM
IC50 [5]: 3.12 µM
IC50 [6]: 0.079 µM
IC50 [7]: 2.22 µM
IC50 [8]: 5.58 µM
IC50 [9]: 10 µM
IC50 [10]: 4.37 µM
IC50 [11]: 2.44 µM
IC50 [12]: 4.24 µM
IC50 [13]: 4.07 µM
IC50 [14]: 5.25 µM
IC50 [15]: 8.07 µM
IC50 [16]: 4.83 µM
fraction unbound [17]: 0.0055
IC50 [18]: 9.71 µM
IC50 [19]: 17.8 µM
IC50 [20]: 1.51 µM

O=C(NO)c1ccc(Nc2nc3ccccc3n2CC2CCCCC2)cc1 [ID #1, 4-((1-(cyclohexylmethyl)-1H-benzo[d]imidazol-2-yl)amino)-N-hydroxybenzamide]
Papp [1]: 1.68 ×10⁻⁶ cm/s
IC50 [2]: 0.83 µM
Improvement ID #1 over ID #3 Percent ([2]; H929): 39.86%
Improvement ID #1 over ID #3 fold ([2]; H929): 1.66 fold
anticancer activity (tumor volume) when combined with pomalidomide/dexamethasone [21]: significantly superior anticancer activity
IC50 [3]: 0.0064 µM
IC50 [4]: 0.13 µM
IC50 [5]: 0.137 µM
IC50 [6]: 0.019 µM
Improvement ID #1 over ID #3 Percent [7]: 56.31%
Improvement ID #1 over ID #3 fold [7]: 2.29 fold
IC50 [7]: 0.97 µM
IC50 [8]: 2.03 µM
Improvement ID #1 over ID #3 Percent ([8]; A2780): 63.62%
Improvement ID #1 over ID #3 fold ([8]; A2780): 2.75 fold
IC50 [9]: 2.29 µM
Improvement ID #1 over ID #3 Percent ([9]; A549): 77.10%
Improvement ID #1 over ID #3 fold ([9]; A549): 4.37 fold
IC50 [10]: 1.7 µM
Improvement ID #1 over ID #3 Percent [10]: 61.10%
Improvement ID #1 over ID #3 fold [10]: 2.57 fold
Improvement ID #1 over ID #3 Percent ([11]; RS4-11): 54.92%
Improvement ID #1 over ID #3 fold ([11]; RS4-11): 2.22 fold
IC50 [11]: 1.1 µM
anticancer activity (tumor volume) [22]: significantly superior anticancer activity
Improvement ID #1 over ID #3 Percent ([12]; GIST48): 68.87%
Improvement ID #1 over ID #3 fold ([12]; GIST48): 3.21 fold
IC50 [12]: 1.32 µM
Improvement ID #1 over ID #3 Percent ([13]; U251): 61.18%
Improvement ID #1 over ID #3 fold ([13]; U251): 2.58 fold
IC50 [13]: 1.58 µM
Improvement ID #1 over ID #3 Percent ([14]; K562): 69.90%
Improvement ID #1 over ID #3 fold ([14]; K562): 3.32 fold
IC50 [14]: 1.58 µM
Improvement ID #1 over ID #3 Percent [15]: 78.93%
Improvement ID #1 over ID #3 fold [15]: 4.75 fold
IC50 [15]: 1.7 µM
IC50 [16]: 1.83 µM
Improvement ID #1 over ID #3 Percent [16]: 62.11%
Improvement ID #1 over ID #3 fold [16]: 2.64 fold
fraction unbound [17]: 0.0017
IC50 [18]: 5.01 µM
Improvement ID #1 over ID #3 Percent ([18]; MFE280): 48.40%
Improvement ID #1 over ID #3 fold ([18]; MFE280): 1.94 fold
Improvement ID #1 over ID #3 Percent ([19]; GIST882): 67.66%
Improvement ID #1 over ID #3 fold ([19]; GIST882): 3.09 fold
IC50 [19]: 5.75 µM
IC50 [20]: 0.55 µM
Improvement ID #1 over ID #3 Percent ([20]; SUDHL-10): 63.58%
Improvement ID #1 over ID #3 fold ([20]; SUDHL-10): 2.75 fold
